The test system of assay [1] is monoclonal antibody Dx02-I-0. Nature of the assay: Cross-reactivity of monoclonal antibody Dx02-I-0 by indirect competitive assay (ELISA, II-1 immobilized). Type of assay: binding, mouse. How it is done:
According to the method used for determination of the antibody titer, antigen II-1 or II-2 was immobilized onto wells of a microtiter plate and the wells were washed. A solution (300 μl) of Block Ace 4-fold diluted with deionized water was then added to the wells, and the wells were blocked by allowing it to stand at room temperature for 2 hours. The wells were washed three times with the washing solution (300 μl). The supernatant (25 μl) of the culture containing a primary antibody as well as a solution (25 μl) of various concentrations of a phenoxathiin derivative (I-1 or I-2), which is a compound for screening having a structure similar to that of dioxins and having a reduced toxicity, in 20% DMSO and 0.01% Triton-X100, or a solution (25 μl) of various concentrations of dioxins in 20% DMSO and 0.01% Triton-X100, or a solution (25 μl) containing neither the phenoxathiin derivatives nor the dioxins in 20% DMSO and 0.01% Triton-X100 which serves as a control were then added to the wells and mixed in the wells. The wells were allowed to stand at room temperature for 10 to 30 minutes to effect an antigen-antibody reaction.
The wells were washed three times with the washing solution (300 μl). Then, in order to detect the primary antibody which was bound to II-1 or II-2 immobilized onto the plate, a solution (50 μl) of a horseradish peroxidase-labeled anti-mouse IgG (recognizing γ-chain) prepared by 3000-fold diluting with a solution of Block Ace 10-fold diluted with deionized water was added to the wells as a solution of a secondary antibody, and reacted at room temperature for one our. After the wells were again washed three times with the washing solution (300 μl), a TMB solution was added to the wells, and a coloration reaction was effected at room temperature. After 5 to 15 minutes, the reaction was terminated by adding 1 M phosphoric acid (50 μl), and the absorbance at 450 nm was immediately measured using a microplate reader. The ratio (B/B0) of an absorbance value (B) in the well to which one of phenoxathiin derivatives or dioxins was added, to an absorbance value (control OD; B0) in the well to which only a solution of 20% DMSO and 0.01% Triton-X100 was added but neither the phenoxathiin derivatives nor the dioxins were added, was calculated to evaluate the reactivity of the primary antibody. A hybridoma in the well in which a continuously high production of an antibody having a high binding activity against the antigens was recognized was selected, expanded, and cloned by a limiting dilution method.
Using monoclonal antibody Dx02-I-0, the cross-reactivity with 17 kinds of dioxins each having a toxicity value and 12 kinds of coplanar PCBs was evaluated by an indirect competitive assay. II-1 (50 μl) was added to wells in a microtiter plate, and the wells were allowed to stand at room temperature for one hour and then washed. After the wells were blocked, various concentrations of one of dioxins (25 μl) dissolved in 20% DMSO and 0.01% Triton-X100 or a solution (25 μl) of 20% DMSO and 0.01% Triton-X100 not containing any dioxin which serves as a control as well as a solution (25 μl) of the antibody diluted with 0.01 to 0.1% BSA were added to the wells in the plate, and reacted at room temperature for 10 to 30 minutes.
Then, a coloration reaction was effected using a secondary antibody against the antibody bound to the solid phase, i.e. a peroxidase-labeled anti-mouse IgG antibody (recognizing γ-chain) as well as TMB. After the enzyme reaction was terminated, the absorbance at 450 nm was immediately measured. The B/B0 values were plotted for various dioxins, IC50 values were calculated from the resulting figures, and the cross-reactivity of the antibody was obtained from these values (Table 3).

The subject of assay [2] is monoclonal antibody Dx02-I-0. Nature of the assay: Standard curve by indirect competitive assay, inhibition by 2,3,4,7,8-PeCDF. Type of assay: binding, mouse. The conditions noted are these: purified antibody Dx02-I-0, immobilized II-1, FIG. 1. How it is done:
II-1 was immobilized onto a microtiter plate at room temperature for one hour, and the plate was washed three Limes with the washing solution (300 μl). A solution (300 μl) of Block Ace prepared by 4-fold diluting with deionized water was then added to the wells, and the wells were blocked at room temperature for 2 hours. The wells were washed three times with the washing solution. […]
The wells were then washed, and a secondary antibody, i.e. a solution (50 μl) of a horseradish peroxidase-labeled anti-mouse IgG (recognizing γ-chain) prepared by 3000-fold diluting with a solution of Block Ace 10-fold diluted with deionized water was added to the wells, and reacted at room temperature for one hour. […] After 5 to 15 minutes, the reaction was terminated by adding 1 M phosphoric acid (50 μl), and the absorbance at 450 nm was immediately measured using a microplate reader. The ratio (B/B0) of an absorbance value (B) in the well to which one of dioxins was added, to control OD (B0) was calculated, and the calculated values were plotted against the concentrations of the added dioxin with single logarithm to obtain a typical sigmoid curve (FIG. 1).

Values after ≈ are worked out from the molar mass of the structure shown.

As to `Clc1cc2oc3c(Cl)c(Cl)c(Cl)cc3c2cc1Cl` [2,3,4,7,8-PeCDF, 2,3,4,7,8-pentachlorodibenzofuran], the “reactivity (cross-reactivity) of the antibody” value in assay [1] (assuming the reactivity with 1,2,3,7,8-PeCDF is 100%) turned out to be 16%. Besides, the 50% inhibitory concentration (IC50) in assay [1] (indirect competitive assay, immobilized II-1, 20% DMSO and 0.01% Triton-X100, room temperature 10 to 30 minutes) is 5.86 ng/mL (≈ 0.0172 µM). Moreover, in assay [1] (obtained from IC50 values, 1,2,3,7,8-PeCDF = 100), the Cross-reactivity amounted to 16. Besides, the “detectable concentration in the assay system” value in assay [2] is no more than 1 ng/mL.

The values above are taken from patent US7038021B2, “Anti-dioxins monoclonal antibody suitable for assaying dioxins in environment and hybridoma producing the same” (priority 2004, dated 2006).
